Patent publication US8338587B2, “Compounds” (AstraZeneca AB, priority 2009, dated 2012)

molecular target: T1, recombinant human GR (Homo sapiens, UniProt P04150); test: Human Glucocorticoid Receptor (GR) Assay (fluorescence polarization competition, Panvera/Invitrogen kit); conditions: GS Red Fluoromone tracer, 2 hours at room temperature, 100% control 10 μM Dexamethasone, read-out: Inhibition of GR binding, IC50
T1 construct: purchased Panvera/Invitrogen P2812 (kit P2893)
T1 sequence (P04150 1-777): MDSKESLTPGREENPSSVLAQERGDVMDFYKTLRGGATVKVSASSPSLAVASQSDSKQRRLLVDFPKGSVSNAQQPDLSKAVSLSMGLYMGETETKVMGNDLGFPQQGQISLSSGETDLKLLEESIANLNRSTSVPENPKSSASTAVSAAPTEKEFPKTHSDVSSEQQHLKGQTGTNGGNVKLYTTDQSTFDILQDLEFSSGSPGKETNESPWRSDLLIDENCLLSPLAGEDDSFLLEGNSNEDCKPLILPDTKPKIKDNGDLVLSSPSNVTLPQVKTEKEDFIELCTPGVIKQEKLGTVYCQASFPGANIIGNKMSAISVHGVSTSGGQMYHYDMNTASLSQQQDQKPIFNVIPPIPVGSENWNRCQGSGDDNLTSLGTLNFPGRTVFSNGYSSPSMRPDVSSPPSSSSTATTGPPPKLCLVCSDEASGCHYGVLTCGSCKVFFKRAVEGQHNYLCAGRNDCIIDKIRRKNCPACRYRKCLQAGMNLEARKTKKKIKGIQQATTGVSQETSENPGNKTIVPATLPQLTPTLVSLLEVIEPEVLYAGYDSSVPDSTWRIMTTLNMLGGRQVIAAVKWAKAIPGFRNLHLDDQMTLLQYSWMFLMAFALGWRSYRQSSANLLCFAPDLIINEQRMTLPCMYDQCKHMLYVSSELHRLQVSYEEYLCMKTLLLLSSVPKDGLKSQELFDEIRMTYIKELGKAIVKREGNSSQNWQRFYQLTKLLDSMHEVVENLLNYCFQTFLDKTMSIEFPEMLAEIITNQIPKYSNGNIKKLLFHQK
Description: Human Glucocorticoid Receptor (GR) Assay The assay is based on a commercial kit from Panvera/Invitrogen (Part number P2893). The assay technology is fluorescence polarization. The kit utilises recombinant human GR (Panvera, Part number P2812), a Fluoromone™ labelled tracer (GS Red, Panvera, Part number P2894) and a Stabilizing Peptide 10× (Panvera, Part number P2815). The GR and Stabilizing Peptide reagents are stored at −70° C. while the GS Red is stored at −20° C. Also included in the kit are 1M DTT (Panvera, Part number P2325, stored at −20° C.) and GR Screening buffer 10× (Panvera, Part number P2814, stored at −70° C. initially but once thawed stored at room temperature). Avoid repeated freeze/thaws for all reagents. The GR Screening buffer 10× comprises 100 mM potassium phosphate, 200 mM sodium molybdate, 1 mM EDTA and 20% DMSO. Test compounds (1 μL) and controls (1 μL) in 100% DMSO were added to black is polystyrene 384-well plates (Greiner low volume black flat-bottom, part number 784076). 0% control was 100% DMSO and 100% control was 10 μM Dexamethasone. Background solution (8 μL; assay buffer 10×, Stabilizing Peptide, DTT and ice cold MQ water) was added to the background wells. GS Red solution (7 μL; assay buffer 10×, Stabilizing Peptide, DTT, GS Red and ice cold water) was added to all wells except background wells. GR solution (7 μL; assay buffer 10×, Stabilizing Peptide, DTT, GR and ice cold water) was added to all wells. The plate was sealed and incubated in a dark at room temperature for 2 hours. The plate was read in an Analyst plate reader (LJL Biosystems/Molecular Devices Corporation) or other similar plate reader capable of recording fluorescence polarization (excitation wavelength 530 nm, emission wavelength 590 nm and a dichroic mirror at 561 nm).

Structure (SMILES)	IC50 [nM]
COCC(=O)O[C@]1(C(=O)SCC#N)CC[C@H]2[C@@H]3C[C@H](C)C4=Cc5c(cnn5-c5ccc(F)nc5)C[C@]4(C)[C@H]3[C@@H](O)C[C@@]21C [Example 24, (1R,3aS,3bS,5S,10aR,10bS,11S,12aS)-1-{[(Cyanomethyl)sulfanyl]carbonyl}-7-(6-fluoropyridin-3-yl)-11-hydroxy-5,10a,12a-trimethyl-1,2,3,3a,3b,4,5,7,10,10a,10b,11,12,12a-tetradecahydrocyclopenta[5,6]naphtho[1,2-f]indazol-1-yl methoxyacetate]	1.1
C[C@H]1C[C@@H]2[C@H]([C@@H](O)C[C@@]3(C)[C@H]2CC[C@]3(OC(=O)C2CC2)C(=O)SCF)[C@@]2(C)Cc3cnn(-c4ccc(F)nc4)c3C=C12 [Example 25, (1R,3aS,3bS,5S,10aR,10bS,11S,12aS)-1-{[(Fluoromethyl)sulfanyl]carbonyl}-7-(6-fluoropyridin-3-yl)-11-hydroxy-5,10a,12a-trimethyl-1,2,3,3a,3b,4,5,7,10,10a,10b,11,12,12a-tetradecahydrocyclopenta[5,6]naphtho[1,2-f]indazol-1-yl cyclopropanecarboxylate]	1.2
CCC(=O)O[C@]1(C(=O)SCC#N)[C@H](C)C[C@H]2[C@@H]3CCC4=Cc5c(cnn5-c5ccc(F)cc5)C[C@]4(C)[C@@]3(F)[C@@H](O)C[C@@]21C [Example 26, (1R,2R,3aS,3bS,10aS,10bR,11S,12aS)-10b-Fluoro-1-{[(cyanomethyl)sulfanyl]carbonyl}-7-(4-fluorophenyl)-11-hydroxy-2,10a,12a-trimethyl-1,2,3,3a,3b,4,5,7,10,10a,10b,11,12,12a-tetradecahydrocyclopenta[5,6]naphtho[1,2-f]indazol-1-yl propanoate]	17
COCC(=O)O[C@]1(C(=O)SCC#N)[C@H](C)C[C@H]2[C@@H]3CCC4=Cc5c(cnn5-c5ccc(F)cc5)C[C@]4(C)[C@@]3(F)[C@@H](O)C[C@@]21C [Example 27, (1R,2R,3aS,3bS,10aS,10bR,11S,12aS)-10b-Fluoro-1-{[(cyanomethyl)sulfanyl]carbonyl}-7-(4-fluorophenyl)-11-hydroxy-2,10a,12a-trimethyl-1,2,3,3a,3b,4,5,7,10,10a,10b,11,12,12a-tetradecahydrocyclopenta[5,6]naphtho[1,2-f]indazol-1-yl methoxyacetate]	6
C[C@@H]1C[C@H]2[C@@H]3CCC4=Cc5c(cnn5-c5ccc(F)cc5)C[C@]4(C)[C@@]3(F)[C@@H](O)C[C@]2(C)[C@@]1(OC(=O)c1cocn1)C(=O)SCF [Example 28, (1R,2R,3aS,3bS,10aS,10bR,11S,12aS)-10b-Fluoro-1-{[(fluoromethyl)sulfanyl]carbonyl}-7-(4-fluorophenyl)-11-hydroxy-2,10a,12a-trimethyl-1,2,3,3a,3b,4,5,7,10,10a,10b,11,12,12a-tetradecahydrocyclopenta[5,6]naphtho[1,2-f]indazol-1-yl 1,3-oxazole-4-carboxylate]	15
C[C@@H]1C[C@H]2[C@@H]3CCC4=Cc5c(cnn5-c5ccc(F)cc5)C[C@]4(C)[C@@]3(F)[C@@H](O)C[C@]2(C)[C@@]1(OC(=O)c1cocn1)C(=O)SCC#N [Example 29, (1R,2R,3aS,3bS,10aS,10bR,11S,12aS)-10b-Fluoro-1-{[(cyanomethyl)sulfanyl]carbonyl}-7-(4-fluorophenyl)-11-hydroxy-2,10a,12a-trimethyl-1,2,3,3a,3b,4,5,7,10,10a,10b,11,12,12a-tetradecahydrocyclopenta[5,6]naphtho[1,2-f]indazol-1-yl 1,3-oxazole-4-carboxylate]	5.5
COCC(=O)O[C@]1(C(=O)SCC#N)[C@H](C)C[C@H]2[C@@H]3CCC4=Cc5c(cnn5-c5ccc(F)nc5)C[C@]4(C)[C@@]3(F)[C@@H](O)C[C@@]21C [Example 30, (1R,2R,3aS,3bS,10aS,10bR,11S,12aS)-10b-Fluoro-1-{[(cyanomethyl)sulfanyl]carbonyl}-7-(6-fluoropyridin-3-yl)-11-hydroxy-2,10a,12a-trimethyl-1,2,3,3a,3b,4,5,7,10,10a,10b,11,12,12a-tetradecahydrocyclopenta[5,6]naphtho[1,2-f]indazol-1-yl methoxyacetate]	1.6
